Reference: US20110142837A1, “Method Of Treating Acute Respiratory Distress Syndrome” (TRUSTEES OF THE UNIVERSITY OF PENNSYLVANIA, priority 2007, published 2011)

Legend:
[1] = tested on: neutrophils from healthy individuals incubated with BAL fluid from ARDS patients; test: mPT of supernatants from healthy neutrophils stimulated with ARDS BAL fluid, inhibition studies; type: cell-based, human
Procedure: Isolation of peripheral blood neutrophils: Circulating leukocytes from all ARDS patients and from 4 healthy donors were immediately isolated from EDTA-treated peripheral blood. Peripheral blood neutrophils were separated by Histopaque-double gradient density centrifugation. The absolute number of neutrophils was adjusted to 2-3×10^6 cells/ml in PBS. Approximately one-quarter (˜6-8×10^5 cells in 250 μl PBS) was used for each stimulation or inhibition reaction. Cell purity (>98%), viability by trypan blue exclusion (>97%), and platelet contamination (<2 platelets/100 neutrophils) were assessed in all experiments.
Modified prothrombin time (mPT) assay: The supernatants from neutrophils that had been incubated with BALF supernatants or/and various agents were isolated by centrifugation at 1000×g for 10 minutes; the supernatants from these neutrophil preparations were checked a second time to confirm the absence of contaminating cells or platelets. The coagulation activities (TF/FVIIa binding activity) of the cell supernatants were determined using a modified prothrombin time (mPT) assay as previously described (18). After performing the “classic” prothrombin time (PT) test (100 microliter (μl) platelet poor plasma (PPP) plus 200 μl thromboplastin ISI 1.9 (Instrumentation Laboratory, Milan, Italy), the modified PT analysis was carried out. Namely, 120 μl of cell or BALF supernatant and 80 μl thromboplastin were added to 100 μl of PPP to measure the changes in PT. As a control for modified PT assays, 120 μl of PBS was used instead of cell supernatant, and the in vitro clotting time usually ranged from 31 seconds to 34 seconds.
(§1) Stimulation and inhibition studies: Neutrophils from healthy individuals were incubated for 120 minutes at 37° C. in PBS containing various stimulatory or inhibitory substances, in a total volume of 250 μl. Neutrophils were incubated with: 1) serum (50 μl) from healthy individuals; 2) serum (50 μl) from patients suffering from ARDS; 3) BAL fluid (40 μl) from ARDS patients; 4) BAL fluid from ARDS patients, together with normal neutrophils that had been pretreated for 30 minutes with the C5aR antagonist AcF-[OpdChaWR] (5 μM final concentration); 5) BAL fluid from patients with ARDS, together with normal neutrophils that had been preincubated for 30 minutes with the C3aR antagonist […], 10 μM final concentration); 6) BAL fluid from ARDS patients pretreated for 30 minutes with Humira® (Abbot Laboratories, Abbott Park, Ill.; anti-TNF monoclonal antibody, 0.4 μg/μl final concentration), together with normal neutrophils; or 7) BAL fluid from ARDS patients, together with normal neutrophils pretreated for 30 minutes with anti-IL-6 Mab (10 μg/ml final concentration).
In the complement cascade, cleavage of C3 produces C3a and C3b. C3b contributes to the formation of enzymatic assemblies that in turn catalyze the formation of C5a from C5. The following experiment was designed to test whether inhibition of C3 cleavage, which reduces the amount of C5a formed, is effective in reducing TF expression. Modified PT assays were carried out essentially as described above using neutrophils obtained from healthy individuals and incubating them with BAL fluid from patients with ARDS. The BAL fluid from the seven patients was tested individually.

[2] = molecular target: TNF-alpha in BALF from ARDS patients (human) (UniProt P01375); test: cell-based or functional assay
Chain of UniProt P01375 (P01375 77-233 limits assumed): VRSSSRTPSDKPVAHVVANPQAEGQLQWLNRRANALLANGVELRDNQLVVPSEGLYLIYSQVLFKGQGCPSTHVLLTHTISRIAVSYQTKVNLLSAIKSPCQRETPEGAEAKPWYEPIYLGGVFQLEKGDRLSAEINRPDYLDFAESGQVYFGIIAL

[3] = tested on: TF expression in neutrophils; test: TF expression in BALF-stimulated healthy neutrophils (APAAP immunostaining, FACS, western blot); type: cell-based, human; settings: FIGS. 4B, C and D; healthy neutrophils + 40 μl ARDS BALF
Procedure: as §1
Alkaline-Phosphatase anti-Alkaline-Phosphatase (APAAP) Immunostaining: Smears of cells (BALF pellet and peripheral blood-isolated neutrophils, before and after stimulation and/or inhibition studies) were stored at −20° C. prior to use. […]

[4] = molecular target: C5a receptor (C5aR) on neutrophils from healthy individuals (human) (UniProt P21730); test: cell-based or functional assay
Chain of UniProt P21730 (P21730 whole entry): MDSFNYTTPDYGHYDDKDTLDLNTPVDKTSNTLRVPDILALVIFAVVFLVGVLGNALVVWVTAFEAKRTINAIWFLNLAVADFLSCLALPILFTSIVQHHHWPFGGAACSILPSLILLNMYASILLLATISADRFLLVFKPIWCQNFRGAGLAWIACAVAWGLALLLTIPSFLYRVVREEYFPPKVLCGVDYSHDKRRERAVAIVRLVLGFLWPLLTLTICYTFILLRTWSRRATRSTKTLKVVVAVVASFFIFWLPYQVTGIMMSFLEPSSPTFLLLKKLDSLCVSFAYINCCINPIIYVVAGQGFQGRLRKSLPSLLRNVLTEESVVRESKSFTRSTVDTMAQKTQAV

CC[C@H](C)[C@H](N)C(=O)N[C@H]1CSSC[C@@H](C(=O)N[C@H](C(N)=O)[C@@H](C)O)NC(=O)[C@H](CCCN=C(N)N)NC(=O)[C@H](Cc2cnc[nH]2)NC(=O)[C@H](Cc2cnc[nH]2)NC(=O)CNC(=O)[C@H](Cc2c[nH]c3ccccc23)NC(=O)[C@H](CC(=O)O)NC(=O)[C@H](CCC(N)=O)NC(=O)[C@H](C(C)C)NC(=O)[C@H](C(C)C)NC1=O [compstatin, Ile-Cys-Val-Val-Gln-Asp-Trp-Gly-His-His-Arg-Cys-Thr]
mPT, healthy neutrophils + BALF incubated with compstatin, group b ([1]; 3 ARDS cases (group b), FIG. 6, column 5, P=ns compared to BALF alone 24.13±1.31): 24.57±0.55 | mPT, healthy neutrophils + BALF preincubated with compstatin, group a ([1]; 4 ARDS cases (group a), FIG. 6, column 4, p<0.001 compared to BALF alone 24.13±1.31, PBS 32.11±0.58): 27.98±0.71 | effect on procoagulant activity in mPT, Comp b ([1]; group of 3 ARDS patients, FIG. 6): did not significantly reduce the procoagulant activity | effect on procoagulant activity in mPT, Comp a ([1]; group of 4 ARDS patients, FIG. 6): reduced the procoagulant activity

Humira (Abbott Laboratories; anti-TNF monoclonal antibody)
modified prothrombin time (mPT) of supernatants from healthy neutrophils stimulated with BALF pretreated with anti-TNF antibody [2]: 30.4 s

NC(N)=NCCC[C@H](NC(=O)COCC(c1ccccc1)c1ccccc1)C(=O)O [SB-290152]
influence on mPT values of supernatants from BALF-stimulated neutrophils ([1]; SB-290152 10 μM, anti-IL-6 Mab 10 μg/ml, 30 minutes pretreatment): did not influence the mPT values

Acetyl-Phe-[Orn-Pro-D-cyclohexylalanine-Trp-Arg] [PMX-53]
mPT of supernatants from BALF-stimulated healthy neutrophils after blockade of signaling ([1]; 40 μl ARDS BALF, 30 minutes pretreatment, C5aR antagonist 5 μM, Humira 0.4 μg/μl, BALF without inhibitor 24.13±1.31 sec, ARDS serum control 29.69±1.64 sec, p<0.001, FIG. 4A): 31.91 ± 0.64 s | TF expression in BALF-stimulated neutrophils after blockade (immunohistochemical, flow cytometry, western blot) [3]: loss of TF expression

AcF-[OPdChaWR] (acetyl-Phe-[Orn-Pro-D-cyclohexylalanine-Trp-Arg]; PMX-53) (peptide)
modified prothrombin time (mPT) of supernatants from BALF-stimulated healthy neutrophils pretreated with C5aR antagonist [4]: 31.9 s
